According to ChEMBL document CHEMBL4627324, “Design and synthesis of novel 2-arylbenzimidazoles as selective mutant isocitrate dehydrogenase 2 R140Q inhibitors” (Bioorg Med Chem Lett, 2020):
“And” between values parts separate entries of the source, which are not always exact repeats. Equal entries are not always repeated.

Assays:
[1] = biological target: Isocitrate dehydrogenase [NADP], mitochondrial (Homo sapiens, UniProt P48735, R140Q); experiment: Inhibition of IDH2 R140Q mutant (unknown origin)
Chain of Isocitrate dehydrogenase [NADP], mitochondrial (Homo sapiens, UniProt P48735, R140Q) (P48735 40-452 R140Q limits assumed): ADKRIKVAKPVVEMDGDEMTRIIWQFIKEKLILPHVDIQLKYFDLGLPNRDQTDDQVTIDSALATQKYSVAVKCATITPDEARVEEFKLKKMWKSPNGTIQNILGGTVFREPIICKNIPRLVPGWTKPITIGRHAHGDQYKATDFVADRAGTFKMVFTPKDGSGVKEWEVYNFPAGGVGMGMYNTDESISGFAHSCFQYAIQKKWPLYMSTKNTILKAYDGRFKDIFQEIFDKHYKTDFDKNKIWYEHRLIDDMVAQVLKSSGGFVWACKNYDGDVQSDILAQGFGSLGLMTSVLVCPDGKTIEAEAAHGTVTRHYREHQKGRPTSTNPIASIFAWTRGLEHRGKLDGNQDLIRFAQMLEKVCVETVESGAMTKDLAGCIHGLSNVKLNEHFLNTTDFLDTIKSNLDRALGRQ

[2] = biological target: Isocitrate dehydrogenase [NADP] cytoplasmic (Homo sapiens, UniProt O75874, R132H); experiment: Inhibition of IDH1 R132H mutant (unknown origin)
Chain of Isocitrate dehydrogenase [NADP] cytoplasmic (Homo sapiens, UniProt O75874, R132H) (O75874 2-414 R132H limits assumed): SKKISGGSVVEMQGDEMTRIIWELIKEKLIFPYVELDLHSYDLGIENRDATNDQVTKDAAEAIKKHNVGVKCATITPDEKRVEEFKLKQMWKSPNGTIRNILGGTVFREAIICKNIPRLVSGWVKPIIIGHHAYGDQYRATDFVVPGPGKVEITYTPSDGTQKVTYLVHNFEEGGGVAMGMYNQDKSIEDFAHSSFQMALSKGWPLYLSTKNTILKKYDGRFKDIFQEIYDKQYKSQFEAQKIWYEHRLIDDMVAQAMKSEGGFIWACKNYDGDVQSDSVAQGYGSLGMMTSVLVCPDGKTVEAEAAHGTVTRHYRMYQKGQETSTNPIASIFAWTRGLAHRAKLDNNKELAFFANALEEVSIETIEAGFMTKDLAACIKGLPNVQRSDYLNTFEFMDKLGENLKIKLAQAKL

[3] = biological target: T1, Isocitrate dehydrogenase [NADP], mitochondrial (Homo sapiens, UniProt P48735); experiment: Inhibition of wild type IDH2 (unknown origin)
T1 sequence (P48735 whole entry): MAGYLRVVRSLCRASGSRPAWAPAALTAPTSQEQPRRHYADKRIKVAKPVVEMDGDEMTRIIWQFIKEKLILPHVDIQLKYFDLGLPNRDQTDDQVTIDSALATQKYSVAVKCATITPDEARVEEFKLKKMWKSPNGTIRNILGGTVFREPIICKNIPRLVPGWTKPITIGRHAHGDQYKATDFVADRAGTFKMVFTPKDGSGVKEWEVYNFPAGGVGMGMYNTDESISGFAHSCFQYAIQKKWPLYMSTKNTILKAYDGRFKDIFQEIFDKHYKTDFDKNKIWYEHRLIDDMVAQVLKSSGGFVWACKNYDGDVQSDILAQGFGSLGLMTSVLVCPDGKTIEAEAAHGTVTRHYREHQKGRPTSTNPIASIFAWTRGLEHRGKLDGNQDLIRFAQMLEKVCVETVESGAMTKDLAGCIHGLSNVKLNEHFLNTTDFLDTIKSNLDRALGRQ

[4] = biological target: Isocitrate dehydrogenase [NADP] cytoplasmic (Homo sapiens, UniProt O75874, R132C); experiment: Inhibition of IDH1 R132C mutant (unknown origin)
Chain of Isocitrate dehydrogenase [NADP] cytoplasmic (Homo sapiens, UniProt O75874, R132C) (O75874 2-414 R132C limits assumed): as the sequence (O75874 2-414 R132H limits assumed) above, with H131C counted along it

[5] = biological target: Isocitrate dehydrogenase [NADP] cytoplasmic (Homo sapiens, UniProt O75874); experiment: Inhibition of wild type IDH1 (unknown origin)
Chain of Isocitrate dehydrogenase [NADP] cytoplasmic (Homo sapiens, UniProt O75874) (O75874 whole entry): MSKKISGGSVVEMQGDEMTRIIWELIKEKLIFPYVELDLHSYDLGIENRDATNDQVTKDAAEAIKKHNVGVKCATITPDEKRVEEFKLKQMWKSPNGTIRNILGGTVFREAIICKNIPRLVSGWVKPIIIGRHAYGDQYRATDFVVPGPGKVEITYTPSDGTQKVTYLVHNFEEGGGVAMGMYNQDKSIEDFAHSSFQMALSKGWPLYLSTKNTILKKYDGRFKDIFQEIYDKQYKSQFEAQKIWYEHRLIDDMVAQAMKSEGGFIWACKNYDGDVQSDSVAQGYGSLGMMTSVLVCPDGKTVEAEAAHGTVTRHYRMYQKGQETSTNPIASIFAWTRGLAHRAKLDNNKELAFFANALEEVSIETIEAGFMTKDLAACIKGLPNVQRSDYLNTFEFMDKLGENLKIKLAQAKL

[6] = biological target: Isocitrate dehydrogenase [NADP], mitochondrial (Homo sapiens, UniProt P48735, R172K); experiment: Inhibition of IDH2 R172K mutant (unknown origin)
Chain of Isocitrate dehydrogenase [NADP], mitochondrial (Homo sapiens, UniProt P48735, R172K) (P48735 40-452 R172K limits assumed): as the sequence (P48735 40-452 R140Q limits assumed) above, with Q101R, R133K counted along it

| SMILES | IC50 [1] | IC50 [2] | IC50 [3] | IC50 [4] | IC50 [5] | IC50 [6] |
| --- | --- | --- | --- | --- | --- | --- |
| O=S(=O)(NC1CC1)c1ccc(-c2ccsc2)c(Nc2nc3ccc(F)c(F)c3[nH]2)c1 | 13.8 µM | – | – | – | – | – |
| N#Cc1ccc2nc(Nc3cc(S(=O)(=O)NC4CC4)ccc3-c3ccsc3)[nH]c2c1 | 97.9 µM | – | – | – | – | – |
| Cc1ccc2nc(Nc3cc(S(=O)(=O)NC4CC4)ccc3-c3ccsc3)[nH]c2c1C | 1.61 µM | – | – | – | – | – |
| O=S(=O)(NC1CC1)c1ccc(-c2ccsc2)c(Nc2nc3ccc(Cl)c(Cl)c3[nH]2)c1 | 2.72 µM | – | – | – | – | – |
| O=S(=O)(NC1CC1)c1ccc(-c2ccsc2)c(Nc2nc3ccc(F)c(Cl)c3[nH]2)c1 | 10.3 µM | – | – | – | – | – |
| COc1ccc2nc(Nc3cc(S(=O)(=O)NC4CC4)ccc3-c3ccsc3)[nH]c2c1 | 46.9 µM | – | – | – | – | – |
| O=S(=O)(NC1CC1)c1ccc(-c2ccsc2)c(Nc2nc3cc(F)ccc3[nH]2)c1 | 0.73 µM | > 100 µM | > 100 µM | > 100 µM | > 100 µM | 78.8 µM |
| O=S(=O)(NC1CC1)c1ccc(-c2ccsc2)c(Nc2nc3ccc(C(F)(F)F)cc3[nH]2)c1 | 14.1 µM | – | – | – | – | – |
| O=S(=O)(NC1CC1)c1ccc(-c2ccsc2)c(Nc2nc3ccc(Cl)cc3[nH]2)c1 | 11.9 µM | – | – | – | – | – |
| O=S(=O)(NC1CC1)c1ccc(-c2ccsc2)c(Nc2nc3ccc(C(F)(F)F)c(Cl)c3[nH]2)c1 | 4.34 µM | – | – | – | – | – |
| O=S(=O)(NC1CC1)c1ccc(-c2ccsc2)c(Nc2nc3cc(Br)ccc3[nH]2)c1 | 2.02 µM and 0.26 µM | > 100 µM | > 100 µM | > 100 µM | > 100 µM | > 100 µM |
| COC(=O)c1ccc2nc(Nc3cc(S(=O)(=O)NC4CC4)ccc3-c3ccsc3)[nH]c2c1 | > 100 µM | – | – | – | – | – |
| O=S(=O)(NC1CC1)c1ccc(-c2ccsc2)c(Nc2nc3cc(F)cc(F)c3[nH]2)c1 | 4.94 µM | – | – | – | – | – |

Other lines, results leading:

| IC50 [1] | IC50 [2] | IC50 [3] | IC50 [4] | IC50 [5] | IC50 [6] | SMILES |
| --- | --- | --- | --- | --- | --- | --- |
| > 100 µM | – | – | – | – | – | CCOC(=O)c1ccc2nc(Nc3cc(S(=O)(=O)NC4CC4)ccc3-c3ccsc3)[nH]c2c1 |
| 0.96 µM | > 100 µM | > 100 µM | > 100 µM | > 100 µM | 51.8 µM | Cc1cc(C)c2[nH]c(Nc3cc(S(=O)(=O)NC4CC4)ccc3-c3ccsc3)nc2c1 |
| 5.41 µM | – | – | – | – | – | O=S(=O)(NC1CC1)c1ccc(-c2ccsc2)c(Nc2nc3ccccc3[nH]2)c1 |
| 0.31 µM | > 100 µM | > 100 µM | > 100 µM | > 100 µM | 1.08 µM | CC(C)(O)CNc1nc(Nc2ccnc(C(F)(F)F)c2)nc(-c2cccc(C(F)(F)F)n2)n1 [ENASIDENIB] |
| > 100 µM | 0.17 µM | > 100 µM | 0.39 µM | > 100 µM | > 100 µM | Cc1ccccc1C(C(=O)NC1CCCCC1)N(C(=O)Cn1ccnc1C)c1cccc(F)c1 (configuration not stated) |
| – | > 100 µM | – | > 100 µM | > 100 µM | – | O=C(Nc1cccc(C(F)(F)F)c1)Nc1cc(S(=O)(=O)NC2CC2)ccc1-c1ccsc1 |
| 0.65 µM | > 100 µM | > 100 µM | > 100 µM | > 100 µM | > 100 µM | O=S(=O)(NC1CC1)c1ccc(-c2ccsc2)c(Nc2nc3ccc(Br)c(Br)c3[nH]2)c1 |
